Reference: US5071983A, “Therapeutic nucleosides” (priority 1989, dated 1991)
“And” between values parts separate entries of the source, which are not always exact repeats. Equal entries are not always repeated. Where two headings read alike, the source gives them in different places. Blank lines part the entries; values can stand above or below the compound they belong to.

How the values were obtained:
[1] = Concomitant plasma and brain levels of DDC and its congeners after oral dosing of rats; format: in vivo, male Sprague Dawley rats; details: rat; for Amounts of analogues still containing the N4-amide in plasma and brain / Plasma and brain levels of DDC relative to DDC dosing: oral dose equivalent to 25 mg DDC, 0.5 and 2 hours; for Levels of DDC in plasma and brain relative to a dose of DDC, 0.5 hour: 0.5 hour post dose; for Plasma and brain concentrations of DDC relative to a dose of DDC, 2 hours: 2 hours post dose
Experimental: (§1) Using an intragastric needle, sexually mature, male Sprague Dawley rats were given single 25 mg/kg oral doses of DDC or equimolar doses of DDC Congeners.
For concomitant plasma and brain level studies, each compound was administered to two animals. Animals were sacrificed by decapitation, one of each pair at 30 minutes and the other at 2 hours post dose. Blood was collected into heparinized cups and plasma was prepared. Samples of each plasma were ultrafiltered (Amicon Centrifree Micropartition Systems) prior to HPLC analysis. Brains were removed, weighed, homogenized in 2 volumes (2 ml/g) deionized water and centrifuged (12,000×g 4° C., 30 min). The resulting supernatants were filtered (0.22 μm filters) prior to HPLC analysis.
(§2) A dual-pump HPLC system was used to analyse samples of urine, feces, plasma and brain for DDC and its congeners and their metabolites. The solvent for pump A was 25 mM phosphoric acid, buffered to pH 7.2 with ammonium hydroxide. The solvent for pump B was 60% acetonitrile in solvent A. Samples were injected onto an Adsorbospher phenyl column (4.6×250 mm, 5 micron spherical packing) and eluted at a flow rate of 1 ml/minute using linear increases in solvent B from 0 to 15% over 15 minutes and from 15 to 100% over 21 minutes, with 5 minute purge (100% B) and 15 minute restore (0% B) period between injections. The absorbance of the column effluent was monitored at 273 and 254 nm. Concentrations of compounds were determined by comparing appropriate peak areas to standard curves obtained from analysis of aqueous solutions of authentic standards. Compounds were identified by comparing retention times and ratios of peak areas at 273 and 254 nm to those of authentic standards.

HIV [2] = assay: Antiviral activity against HIV (method of Mitsuya et al.); format: cell-based; details: Human immunodeficiency virus 1; for IC50: HIV; for minimal effective concentration: no % protection printed, read-out: Concentration at which found to have activity against HIV
Experimental: The compounds of Examples 1-6 were tested for activity against HIV generally in accordance with the method described by Mitsuya et al, Proc. Nat. Acad. Sci, USA Vol 82, pp 7096-7100, October 1985 and found to have activity against HIV at the following concentrations: […]

[3] = Urinary and fecal excretion after oral dosing of rats; format: in vivo, male Sprague Dawley rats; details: rat
Experimental: as §1
For urinary and fecal excretion studies, each compound was administered to two animals, which were housed separately in metabolic cages and urine and feces were separated and collected during the 0-24, 24-48 and 48-72 hour intervals post dose. To prevent bacterial growth, sodium azide was placed in the urine collection vessel so that the final concentration, after 24 hours of urine collection, would be about 0.02%. Feces were weighed, homogenized in 9 volumes (9 ml/g) deionized water and centrifuged (12,000×g, 4° C., 30 min). Prior to high-performance liquid chromatographic (HPLC) analysis for drug and metabolite content, samples of the fecal homogenate supernatants and urines were filtered (0.22 μm filters).
as §2

HIV [4] = details: known from EP 0216511; cited from earlier work
[5] = in vivo, po, 25 mg/kg, 1440 min

Compound: CC(C)(C)C(=O)Nc1ccn([C@H]2CC[C@@H](CO)O2)c(=O)n1 [Example 5, 2',3'-dideoxy-N^4-pivaloylcytidine]
Amounts of analogues still containing the N4-amide in plasma and brain [1]: Much higher amounts
Plasma and brain levels of DDC relative to DDC dosing [1]: lower than what was observed after dosing with DDC
inhibition at 100 µM (HIV [2]; 100 μM, read-out: % Protection): 42%

Compound: CC(C)(C)C(=O)OC[C@@H]1CC[C@H](n2ccc(N)nc2=O)O1 [Example 6, 2',3'-Dideoxy-5'-O-pivaloylcytidine]
Increase of oral bioavailability of DDC ([3]; in vivo, po): 2.5 fold
Levels of DDC in plasma and brain relative to a dose of DDC, 0.5 hour ([1]; oral): higher levels of DDC in the plasma and brain
Plasma and brain concentrations of DDC relative to a dose of DDC, 2 hours ([1]; oral): lower than those observed after a dose of DDC
inhibition at 6.4 µM (HIV [2]; 6.4 μM, read-out: % Protection): 88%

Compound: CCC(=O)OC[C@@H]1CC[C@H](n2ccc(N)nc2=O)O1 [Example 3, 2',3'-Dideoxy-5'-O-propionylcytidine]
Levels of DDC in plasma and brain relative to a dose of DDC, 0.5 hour ([1]; oral): higher levels of DDC in the plasma and brain
Plasma and brain concentrations of DDC relative to a dose of DDC, 2 hours ([1]; oral): lower than those observed after a dose of DDC
IC50 (HIV [2]): 1.6 µM

Compound: CC(C)(C)C(=O)Nc1ccn([C@H]2CC[C@@H](COC(=O)C(C)(C)C)O2)c(=O)n1 [Example 4, 2',3'-dideoxy-N^4,5'-O-dipivaloylcytidine]
Amounts of analogues still containing the N4-amide in plasma and brain [1]: Much higher amounts
Plasma and brain levels of DDC relative to DDC dosing [1]: lower than what was observed after dosing with DDC
minimal effective concentration (HIV [2]): 25 µM

Compound: Nc1ccn([C@H]2CC[C@@H](CO)O2)c(=O)n1 [DDC, 2',3'-Dideoxycytidine, reference compound]
Anti-HIV activity (HIV [4]): potent anti-HIV activity
dose excreted at 24 h ([3]; feces, po, 25 mg/kg, rat 1, oral 25 mg/kg, compound detected: DDC, read-out: Percent Dose Excreted as DDC, 0-24 hr Feces): 12%
dose excreted ([3]; feces, po, 25 mg/kg, two rats, oral 25 mg/kg, feces, DDC, read-out: Average fecal excretion of parent compound): 28.1%
Average fecal excretion of 2',3'-dideoxyuridine ([3]; in vivo, po, 25 mg/kg): 1.9 % of the dose
Compound Detected, 24-72 hr Feces ([3]; in vivo, po, 25 mg/kg): none
Gastrointestinal absorption ([3]; in vivo, po, 25 mg/kg): limited gastrointestinal absorption
Percent Dose Excreted as ddU, 0-24 hr Feces [3, 5]: 1.1 Percent Dose
Percent Dose Excreted as ddU, 0-24 hr Urine (second entry so headed) [3, 5]: 2.6 Percent Dose
Percent Dose Excreted as DDC, 0-24 hr Urine ([3]; single oral dose 25 mg/kg DDC or equimolar, individual rats, compound detected: DDC, 25 mg/kg, 1440 min): 31.6 Percent Dose
Percent Dose Excreted as DDC, 24-72 hr Urine ([3]; single oral dose 25 mg/kg DDC or equimolar, individual rats, compound detected: DDC, 25 mg/kg, 4320 min): 6.23 Percent Dose and 1.5 Percent Dose
dose excreted at 24 h ([3]; urine, po, 25 mg/kg, rat 2, oral 25 mg/kg DDC, compound detected: DDC, read-out: Percent Dose Excreted as DDC, 0-24 hr Urine (second entry so headed)): 32.2%
dose excreted at 24 h ([3]; urine, po, 25 mg/kg, single oral dose 25 mg/kg DDC or equimolar, individual rats, compound detected: DDC, read-out: Percent Dose Excreted as DDC, 0-24 hr Urine): 46.6%
dose excreted at 72 h ([3]; urine, po, 25 mg/kg, two rats, oral 25 mg/kg DDC or equimolar, urine 72 hours, read-out: Average urinary excretion as DDC): 43%
Absorption and hydrolysis (plasma level data) ([1]; oral): absorption of DDC although incomplete, may be more prolonged
inhibition at 16 µM (HIV [2]; 16 μM, read-out: % Protection): 99%

Now from value to compound, other results behind:

IC50 (HIV [2]): 36 µM
Compound: CCC(=O)Nc1ccn([C@H]2CC[C@@H](CO)O2)c(=O)n1 [Example 2, 2',3'-Dideoxy-N^4-propionylcytidine]

Amounts of analogues still containing the N4-amide in plasma and brain [1]: Much higher amounts
Compound: CCC(=O)Nc1ccn([C@H]2CC[C@@H](COC(=O)CC)O2)c(=O)n1 [Example 1, 2',3'-Dideoxy-N^4, 5'-O-dipropionylcytidine]
Plasma and brain levels of DDC relative to DDC dosing [1]: lower than what was observed after dosing with DDC
minimal effective concentration (HIV [2]): 25 µM
